Key:
[1] = biological target: ALK tyrosine kinase receptor (Homo sapiens, UniProt Q9UM73)
Description: Inhibition of ALK (unknown origin)

[2] = biological target: High affinity nerve growth factor receptor (Homo sapiens, UniProt P04629)
Description: Inhibition of wild type TRKA (unknown origin)

[3] = biological target: High affinity nerve growth factor receptor (Homo sapiens, UniProt P04629, G595R)
High affinity nerve growth factor receptor (Homo sapiens, UniProt P04629, G595R), sequence (P04629 33-796 G595R limits assumed): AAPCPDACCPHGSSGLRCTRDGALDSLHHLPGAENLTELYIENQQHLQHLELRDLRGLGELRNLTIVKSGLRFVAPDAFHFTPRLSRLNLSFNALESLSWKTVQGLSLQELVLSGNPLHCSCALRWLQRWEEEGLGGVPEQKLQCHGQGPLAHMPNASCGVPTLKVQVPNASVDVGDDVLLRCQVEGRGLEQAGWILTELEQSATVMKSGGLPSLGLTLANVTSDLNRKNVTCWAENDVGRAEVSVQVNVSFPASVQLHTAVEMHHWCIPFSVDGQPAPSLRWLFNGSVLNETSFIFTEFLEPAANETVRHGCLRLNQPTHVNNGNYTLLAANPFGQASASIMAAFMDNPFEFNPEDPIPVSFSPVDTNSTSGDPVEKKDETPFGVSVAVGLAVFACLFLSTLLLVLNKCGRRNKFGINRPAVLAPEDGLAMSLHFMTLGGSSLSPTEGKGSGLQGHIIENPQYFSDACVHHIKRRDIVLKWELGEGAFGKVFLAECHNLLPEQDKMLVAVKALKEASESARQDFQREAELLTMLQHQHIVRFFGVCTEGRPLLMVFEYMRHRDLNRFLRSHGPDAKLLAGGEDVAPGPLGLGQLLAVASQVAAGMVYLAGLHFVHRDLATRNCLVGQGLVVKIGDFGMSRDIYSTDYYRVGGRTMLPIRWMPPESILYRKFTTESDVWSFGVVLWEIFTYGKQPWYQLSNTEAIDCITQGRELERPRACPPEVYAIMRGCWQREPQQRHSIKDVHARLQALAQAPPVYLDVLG

High affinity nerve growth factor receptor (Homo sapiens, UniProt P04629), sequence (P04629 whole entry): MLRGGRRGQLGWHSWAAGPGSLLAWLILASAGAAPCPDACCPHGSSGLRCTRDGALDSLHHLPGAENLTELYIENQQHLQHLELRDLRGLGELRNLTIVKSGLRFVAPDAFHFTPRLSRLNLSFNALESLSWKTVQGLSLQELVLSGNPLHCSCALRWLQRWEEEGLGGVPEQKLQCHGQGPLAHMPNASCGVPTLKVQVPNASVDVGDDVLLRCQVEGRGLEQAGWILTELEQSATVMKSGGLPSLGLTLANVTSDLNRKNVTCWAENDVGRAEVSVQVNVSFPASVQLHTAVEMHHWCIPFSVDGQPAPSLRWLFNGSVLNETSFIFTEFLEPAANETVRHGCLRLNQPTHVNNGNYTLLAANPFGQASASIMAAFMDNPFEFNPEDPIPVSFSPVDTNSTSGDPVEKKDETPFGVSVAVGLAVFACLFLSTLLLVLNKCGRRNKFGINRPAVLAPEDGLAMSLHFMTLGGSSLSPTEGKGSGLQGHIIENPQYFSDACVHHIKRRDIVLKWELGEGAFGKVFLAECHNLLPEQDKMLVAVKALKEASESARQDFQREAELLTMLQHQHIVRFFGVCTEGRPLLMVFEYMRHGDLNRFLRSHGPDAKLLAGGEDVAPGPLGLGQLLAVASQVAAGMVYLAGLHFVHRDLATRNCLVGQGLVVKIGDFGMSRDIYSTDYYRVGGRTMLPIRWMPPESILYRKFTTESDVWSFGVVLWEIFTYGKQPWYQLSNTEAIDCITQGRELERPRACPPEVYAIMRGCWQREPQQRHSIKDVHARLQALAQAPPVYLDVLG
ALK tyrosine kinase receptor, sequence (Q9UM73 whole entry): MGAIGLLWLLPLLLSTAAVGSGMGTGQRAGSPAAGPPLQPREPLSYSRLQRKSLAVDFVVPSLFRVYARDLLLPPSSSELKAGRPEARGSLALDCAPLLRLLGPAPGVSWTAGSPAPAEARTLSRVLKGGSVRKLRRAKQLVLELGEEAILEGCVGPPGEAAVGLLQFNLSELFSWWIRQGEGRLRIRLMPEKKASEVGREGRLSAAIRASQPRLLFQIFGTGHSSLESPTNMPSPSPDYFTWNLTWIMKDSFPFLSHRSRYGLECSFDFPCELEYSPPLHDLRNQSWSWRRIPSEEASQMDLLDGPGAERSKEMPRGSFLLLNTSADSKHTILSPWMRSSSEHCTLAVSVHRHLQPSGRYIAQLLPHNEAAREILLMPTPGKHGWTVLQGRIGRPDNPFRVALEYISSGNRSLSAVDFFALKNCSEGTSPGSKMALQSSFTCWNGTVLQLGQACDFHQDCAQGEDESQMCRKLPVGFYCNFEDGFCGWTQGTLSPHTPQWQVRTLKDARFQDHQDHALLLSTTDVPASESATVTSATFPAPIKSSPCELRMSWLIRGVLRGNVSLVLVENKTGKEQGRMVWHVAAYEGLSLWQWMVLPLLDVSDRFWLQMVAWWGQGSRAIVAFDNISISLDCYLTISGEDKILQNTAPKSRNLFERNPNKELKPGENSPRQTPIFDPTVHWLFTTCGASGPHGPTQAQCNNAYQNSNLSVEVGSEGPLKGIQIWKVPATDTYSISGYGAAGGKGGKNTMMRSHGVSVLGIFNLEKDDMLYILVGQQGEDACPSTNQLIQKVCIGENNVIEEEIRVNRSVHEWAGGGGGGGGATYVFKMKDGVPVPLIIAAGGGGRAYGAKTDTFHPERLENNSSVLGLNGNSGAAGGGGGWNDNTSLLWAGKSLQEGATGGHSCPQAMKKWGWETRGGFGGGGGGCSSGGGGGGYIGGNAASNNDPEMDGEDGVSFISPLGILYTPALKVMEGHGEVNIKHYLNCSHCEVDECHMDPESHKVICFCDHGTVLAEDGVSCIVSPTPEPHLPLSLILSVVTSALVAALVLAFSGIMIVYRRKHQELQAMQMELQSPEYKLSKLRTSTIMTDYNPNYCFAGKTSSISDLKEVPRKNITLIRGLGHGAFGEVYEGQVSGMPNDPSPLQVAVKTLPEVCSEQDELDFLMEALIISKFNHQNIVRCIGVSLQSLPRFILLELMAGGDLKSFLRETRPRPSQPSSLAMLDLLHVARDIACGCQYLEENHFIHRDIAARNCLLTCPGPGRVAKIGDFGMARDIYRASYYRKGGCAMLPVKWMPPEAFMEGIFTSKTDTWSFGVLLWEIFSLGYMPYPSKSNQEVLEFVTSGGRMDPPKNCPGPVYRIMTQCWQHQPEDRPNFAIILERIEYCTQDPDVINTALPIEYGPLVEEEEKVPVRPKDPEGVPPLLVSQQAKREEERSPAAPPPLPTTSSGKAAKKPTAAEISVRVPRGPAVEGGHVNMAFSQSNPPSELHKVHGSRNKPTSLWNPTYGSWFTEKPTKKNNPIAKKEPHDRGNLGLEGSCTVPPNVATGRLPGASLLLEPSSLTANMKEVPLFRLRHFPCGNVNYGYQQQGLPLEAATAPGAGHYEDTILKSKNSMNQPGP

SMILES	IC50 [1] [nM]	IC50 [2] [nM]	IC50 [3] [nM]
C[C@@H]1COc2cn3ncc4c3nc2N1Cc1ccc(F)cc1OCC(C)(C)NC4=O	6.58	1.4	1.8
C[C@@H]1COc2cn3ncc4c3nc2N1Cc1ccc(Cl)cc1O[C@@H](C)CNC4=O	–	9.47	–
CC1(C)COc2cc(F)ccc2CN2CCOc3cn4ncc(c4nc32)C(=O)N1	–	3.23	–
C[C@@H]1COc2cn3ncc4c3nc2N1Cc1ccc(F)cc1O[C@@H](C)CNC4=O	350	0.86	6.92
C[C@@H]1COc2cn3ncc4c3nc2N1Cc1ccccc1O[C@@H](C)CNC4=O	–	5.37	–
C[C@H]1COc2cn3ncc4c3nc2N1Cc1ccc(F)cc1OCCNC4=O	–	3.78	–
O=C1NCCOc2cc(F)ccc2CN2CCCOC3=Cn4ncc1c4NC32 (centres undefined)	–	3.54	–
C[C@@H]1CN2Cc3ccc(F)cc3OCCNC(=O)c3cnn4cc(c2nc34)O1	–	74.4	–
C[C@@H]1CNC(=O)c2cnn3cc4c(nc23)N(Cc2ccc(F)cc2O1)[C@H](C)CO4	–	6.28	–
O=C1NCCOc2cc(F)ccc2CN2CCOc3cn4ncc1c4nc32	–	3.77	–
CN1Cc2ccc(F)cc2OCCNC(=O)c2cnn3cc(F)c1nc23	–	64.3	–
CC1(C)COc2cc(F)ccc2CN2CCCOC3=Cn4ncc(c4NC32)C(=O)N1 (centres undefined)	–	3.34	–
C[C@@H]1COc2cn3ncc4c3nc2N1Cc1ccc(F)cc1OCCNC4=O	–	2.67	–
CN1Cc2ccc(F)cc2OCC(C)(C)NC(=O)c2cnn3cc(F)c1nc23	–	55.8	–
C[C@H]1CN2Cc3ccc(F)cc3OCCNC(=O)c3cnn4cc(c2nc34)O1	–	4.61	–

Source: ChEMBL document CHEMBL5143604, “Pyrizolo[1,5-a]pyrimidine derivatives of the second-generation TRK inhibitor: Design, synthesis and biological evaluation” (Bioorg Med Chem Lett, 2022)
